According to ChEMBL document CHEMBL4610074, “Somuncurins: Bioactive Peptides from the Skin of the Endangered Endemic Patagonian Frog Pleurodema somuncurense” (J Nat Prod, 2020):
Activity calls are given as the source filed them. The calls are words filed in the database; no cut-off is given here.

Key:
Escherichia coli = assay: Antibacterial activity against Escherichia coli ATCC 25922 incubated for 24 hrs under aerobic condition; type: functional; details: ATCC 25922, 24 h
Staphylococcus aureus = assay: Antibacterial activity against Staphylococcus aureus ATCC 29213 incubated for 24 hrs under aerobic condition; type: functional; details: ATCC 29213, 24 h
[1] = (§1) Hemolytic activity in human RBC at 180 uM measured after 1 hr relative to control; type: ADME, cell-based, Erythrocyte; details: red blood cells (erythrocytes), read-out: Activity
[2] = Cytotoxicity against human MDM cells after 24 hrs by resazurin dye based fluorescence assay; type: cell-based
[3] = Effect on LPS-induced ROS production in human CHME3 cells measured for 30 mins by microscopic method; type: ADME, cell-based; details: 0.5 h
Lipid bilayer [4] = assay: Binding affinity to Escherichia coli lipid extract large unilamellar vesicles incubated for 30 mins by laser-doppler technique
Lipid bilayer [5] = assay: Binding affinity to Escherichia coli lipid extract large unilamellar vesicles assessed as change in tryptophan emission Spectra incubated for 30 mins by spectrofluorometric method
Lipid bilayer [6] = assay: Induction of pore formation in Escherichia coli lipid extract giant unilamellar vesicles at 640 ug/ml after 25 mins by fluorescence confocal microscopy; type: functional
Lipid bilayer [7] = assay: Induction of rearrangement in Escherichia coli lipid extract large unilamellar vesicles assessed as altered colloidal property at 140 ug/ml to 640 ug/ml by dynamic light scattering analysis; type: functional
Lipid bilayer [8] = assay: Induction of lipid aggregation in Escherichia coli lipid extract large unilamellar vesicles at 270 ug/ml by dynamic light scattering analysis; type: functional
Lipid bilayer [9] = assay: Induction of lipid aggregation in PC/bovine brain SPM/cholesterol large unilamellar vesicles at 140 ug/ml to 640 ug/ml by dynamic light scattering analysis
Lipid bilayer [10] = assay: Induction of membrane disruption in Escherichia coli lipid extract large unilamellar vesicles assessed as carboxyfluorescein leakage at 640 ug/ml by fluorescence assay; type: functional
Lipid bilayer [11] = assay: Induction of membrane disruption in PC/bovine brain SPM/cholesterol large unilamellar vesicles assessed as carboxyfluorescein leakage at 640 ug/ml by fluorescence assay
Lipid bilayer [12] = assay: Induction of membrane disruption in Escherichia coli lipid extract large unilamellar vesicles assessed as carboxyfluorescein leakage at 250 ug/ml by fluorescence assay; type: functional
Erythrocyte = assay: as §1; type: ADME, cell-based; details: erythrocyte, 1 h, 180 µM

Row | Substance | MIC (Escherichia coli) | MIC (Staphylococcus aureus) | Activity (Lipid bilayer [4]) [mV] | Activity [2] | also measured
1 | H-FIIWPLRYRK-NH2 | 180 µM | 360 µM | 36 | Non-Toxic | hemolysis at 1 h, 180 µM [1]: < 5%; Activity [3]: Non-Toxic; Activity (Lipid bilayer [5]): inactive; Activity (Lipid bilayer [6]): inactive; Activity (Lipid bilayer [7]): Active; Activity (Lipid bilayer [8]): Active; Activity (Lipid bilayer [9]): Non-Toxic; Activity (Lipid bilayer [10]): 100%; Activity (Lipid bilayer [11]): 20%; Activity (Lipid bilayer [12]): Active
2 | H-NLVGSLLGGILKK-NH2 | 460 µM | > 700 µg/mL | 18 | Non-Toxic | Activity (Erythrocyte): Non-Toxic
3 | H-VSFNRAVIHSLLG-NH2 | > 700 µg/mL | > 700 µg/mL |  |  | 

More lines, main results first:

Row | MIC (Escherichia coli) | MIC (Staphylococcus aureus) | Activity (Lipid bilayer [4]) [mV] | Substance | Activity [2] | also measured
4 | > 700 µg/mL | > 700 µg/mL |  | H-DLASLARLYALAR-NH2 |  | 
5 | > 700 µg/mL | > 700 µg/mL |  | H-DLLNGLLNPVLGIANGLTGGLVKK-NH2 |  | 
6 | 410 µM | > 700 µg/mL | 23 | H-FILKRSYPQYY-NH2 | Non-Toxic | Activity (Erythrocyte): Non-Toxic; Activity [3]: Non-Toxic
7 | > 700 µg/mL | > 700 µg/mL |  | H-NNEENELRRRVSFNRAVIHSLLG-NH2 |  | 
8 | > 700 µg/mL | > 700 µg/mL |  | H-YYQVSEERRRDLASLARLYALAR-NH2 |  | 
